Assay results from paper PMC12307583 (Scientific Reports, 2025).

Columns and labels:
PfGrp94 = PfGrp94 (Plasmodium falciparum, UniProt Q8I0V4); conditions: basal ATPase; used as control protein
PfGrp170 [1] = target: T1, PfGrp170 (Plasmodium falciparum, UniProt C0H5H0); test: biochemical
T1 sequence (C0H5H0 20-932): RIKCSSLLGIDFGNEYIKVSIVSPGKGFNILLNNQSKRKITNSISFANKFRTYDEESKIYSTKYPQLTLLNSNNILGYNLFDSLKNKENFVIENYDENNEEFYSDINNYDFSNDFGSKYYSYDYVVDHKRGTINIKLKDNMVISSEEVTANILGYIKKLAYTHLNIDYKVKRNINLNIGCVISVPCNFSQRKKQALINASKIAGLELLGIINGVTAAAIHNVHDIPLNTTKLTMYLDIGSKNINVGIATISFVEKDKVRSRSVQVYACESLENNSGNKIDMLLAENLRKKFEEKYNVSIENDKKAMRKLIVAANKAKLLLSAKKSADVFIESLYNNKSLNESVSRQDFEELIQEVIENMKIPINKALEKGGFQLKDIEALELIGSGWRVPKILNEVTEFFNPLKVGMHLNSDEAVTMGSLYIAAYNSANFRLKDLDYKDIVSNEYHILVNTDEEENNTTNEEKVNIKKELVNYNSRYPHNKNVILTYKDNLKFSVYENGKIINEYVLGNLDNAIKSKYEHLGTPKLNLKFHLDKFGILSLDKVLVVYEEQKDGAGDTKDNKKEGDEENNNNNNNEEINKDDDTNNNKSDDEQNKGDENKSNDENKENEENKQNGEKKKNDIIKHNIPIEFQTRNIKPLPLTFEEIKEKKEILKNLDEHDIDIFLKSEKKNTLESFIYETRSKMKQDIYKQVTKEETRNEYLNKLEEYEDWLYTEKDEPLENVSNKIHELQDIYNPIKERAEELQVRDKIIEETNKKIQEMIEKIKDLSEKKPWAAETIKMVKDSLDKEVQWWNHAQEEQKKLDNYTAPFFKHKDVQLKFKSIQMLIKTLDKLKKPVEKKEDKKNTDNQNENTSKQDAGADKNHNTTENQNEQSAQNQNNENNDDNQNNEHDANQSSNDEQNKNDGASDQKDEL

PfGrp170 [2] = target: T1, PfGrp170; test: suppression of heat-induced MDH aggregation, light scattering […] nm; type: biochemical; conditions: 100 µM NECA, 1 µM PfGrp170, MDH (pig heart), 20 mM Tris-HCl pH 7.5, 200 mM NaCl, 5 mM MgCl2, 48 °C; inhibitor of chaperone function

Chain of PfGrp94 (Q8I0V4 29-821): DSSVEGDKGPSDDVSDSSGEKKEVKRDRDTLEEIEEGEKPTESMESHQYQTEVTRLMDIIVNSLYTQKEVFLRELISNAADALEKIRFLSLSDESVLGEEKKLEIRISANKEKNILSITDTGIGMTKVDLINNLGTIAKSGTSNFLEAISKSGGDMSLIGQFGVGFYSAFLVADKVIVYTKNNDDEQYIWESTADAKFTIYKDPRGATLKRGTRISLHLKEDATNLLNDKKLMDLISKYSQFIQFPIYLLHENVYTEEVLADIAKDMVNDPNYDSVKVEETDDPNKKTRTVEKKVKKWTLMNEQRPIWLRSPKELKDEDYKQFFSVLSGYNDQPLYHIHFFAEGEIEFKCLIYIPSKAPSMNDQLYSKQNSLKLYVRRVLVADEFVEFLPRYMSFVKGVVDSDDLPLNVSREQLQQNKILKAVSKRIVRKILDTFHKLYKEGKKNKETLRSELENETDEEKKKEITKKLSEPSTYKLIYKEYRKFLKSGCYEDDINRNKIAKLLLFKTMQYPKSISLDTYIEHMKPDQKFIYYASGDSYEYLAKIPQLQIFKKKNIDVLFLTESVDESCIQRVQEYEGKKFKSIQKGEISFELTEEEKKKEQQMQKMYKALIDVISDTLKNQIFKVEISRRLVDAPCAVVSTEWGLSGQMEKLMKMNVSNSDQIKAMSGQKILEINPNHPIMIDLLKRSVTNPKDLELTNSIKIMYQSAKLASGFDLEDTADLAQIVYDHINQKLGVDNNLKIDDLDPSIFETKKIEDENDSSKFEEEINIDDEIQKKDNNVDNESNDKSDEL

| Kd (PfGrp170 [1]) [nM] | Compound | ATPase activity (PfGrp94) | relative aggregation (PfGrp170 [2]) |
| --- | --- | --- | --- |
| 143 ± 15.6 | Nc1ncnc2c1ncn2[C@@H]1O[C@H](COP(=O)(O)OP(=O)(O)OP(=O)(O)O)[C@@H](O)[C@H]1O [ATP] | The basal ATPase activity of PfGrp170 and PfGrp94 as control |  |
|  | CCNC(=O)[C@H]1O[C@@H](n2cnc3c(N)ncnc32)[C@H](O)[C@@H]1O [NECA] |  | higher concentrations of NECA abrogated the chaperone function of PfGrp170 |
